In the METLIN SMRT retention time set (Domingo-Almenara et al. 2019) one finds RP-LC retention time data, which are given here for 79 compounds.

Each structure is given as a SMILES string.

This data set can be described thus: gradient 5% acetonitrile 3 min, to 50% in 2 min, to 85% in 15 min, held 3 min, 100 µL/min. Conditions: column: Zorbax Extend-C18 2.1 x 50 mm; eluents: water / acetonitrile, 0.1% formic acid. The method in brief:
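A Zorbax Extend-C18 column (2.1 × 50 mm, 1.8 μm) run at 100 μL/min with water and acetonitrile, both containing 0.1% formic acid, separated mixtures of ~100 pure standards. The HPLC was coupled to a quadrupole time-of-flight mass spectrometer operated in positive and negative ionization mode, with dead and dwell volumes of 40 μL and 900 μL. Each retention time was taken from a computationally picked adduct peak that was then manually inspected.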
In the case of `CN(Cc1ccco1)C(=O)C1CCCN(c2ncnc3c2nc2n3CCCCC2)C1` (centres undefined), the RP-LC retention time is 738 s. `O=C(CN1CCC(c2nc(-c3cccs3)no2)CC1)Nc1ccccc1C(F)(F)F` displayed an RP-LC retention time of 753 s. As to `CCOc1ccc(C(=O)N2CCN(c3ccc(=O)n(-c4ccc(C(C)C)cc4)n3)CC2)cc1`, the RP-LC retention time was found to be 1000 s. In the case of `CCN1C(SCC(=O)N2CCCC2)=NS(=O)(=O)c2ccccc21`, the RP-LC retention time was found to be 684 s.

`CCOC(=O)c1ccc2nc(C(F)(F)F)nc(N3CCc4ccccc4C3)c2c1` came in with an RP-LC retention time of 1200 s.

Take `CCOc1cc(=O)c(C(=O)N2CCC(C(N)=O)CC2)nn1-c1ccc(C)cc1`: the RP-LC retention time worked out at 610 s. Then `O=C(Cn1ccnc1)N1CCCCC1c1nncn1Cc1ccccc1` (centres undefined), with 579 s; and `COc1ccc(-n2ccn3cc(-c4ccc5c(c4)OCO5)nc3c2=O)cc1OC`, with 733 s; and `COc1ccc(NC(=O)C2CCN(S(=O)(=O)c3ccc4c(c3)CCCC(=O)N4)CC2)cc1Cl`, with 782 s. `O=C(CCc1nc(N2CCCCC2)c2c(-c3ccc(F)cc3)noc2n1)N1CCOCC1` came in with an RP-LC retention time of 902 s. Compound `CCCn1cc(CCNC(=O)c2ccc(Cl)s2)c2cccnc21` yielded an RP-LC retention time of 833 s. `CNC(=O)[C@@H]1CN(S(=O)(=O)c2ccc(Cl)s2)C[C@H]1c1nc(C)no1` returned an RP-LC retention time of 758 s. `COCCc1noc([C@@H]2CN(Cc3ccc(C(C)C)cc3)C[C@H]2CO)n1` displayed an RP-LC retention time of 663 s. `Cc1ccc2[nH]cc(CCN3CC(C(=O)Nc4ccccc4)CC3=O)c2c1` (centres undefined) registered an RP-LC retention time of 801 s.

On to `Cc1cccc(C(=O)Nc2cc(-c3ccsc3)no2)c1`, for which the RP-LC retention time came to 992 s. The same measure for `O=C(Nc1nc(-c2cccc([N+](=O)[O-])c2)cs1)c1ccc(Cl)cc1Cl`: 1060 s; for `CSc1ccc(CNC(=O)C2CCCN(c3nccn4nc(-c5ccc(C)cc5C)cc34)C2)cc1` (centres undefined): 1030 s; for `CCN1CCCn2nc(C3CCN(C(=O)c4cccc(C(F)(F)F)c4)CC3)cc2C1=O`: 785 s. Compound `CN[C@H](CNC(=O)N1CCC[C@@H]([C@@H](OCCNC(=O)OC)c2cccc(Cl)c2)C1)C[C@H]1CCCOC1` returned an RP-LC retention time of 780 s. In turn, `COc1ccc(CN2CCNCC2)c(OC)c1OC` had an RP-LC retention time of 578 s. Turning to `Cc1cc(C)c(NC(=O)COc2cccc3c(=O)n(C)ccc23)c(C)c1`, the RP-LC retention time turned out to be 805 s. For `Cc1nc2ccccn2c(=O)c1NC(=O)Nc1cccs1`, the RP-LC retention time worked out at 566 s.

In turn, `CCOc1cn(-c2ccc(F)cc2)nc1C(=O)NCc1cccs1` displayed an RP-LC retention time of 873 s.

In turn, `CCn1cc(-c2nc(CC(=O)Nc3ccc(F)c(Cl)c3)cs2)c2cccnc21` had an RP-LC retention time of 1020 s. For the compound `CCc1nc(-c2csc(S(=O)(=O)N3CCC(C(=O)N4CCc5ccccc54)CC3)c2)no1`, the RP-LC retention time is 1050 s.

`CCc1onc(C)c1C1CCCN1C(=O)Nc1cccc(C)c1` (centres undefined): the RP-LC retention time amounted to 842 s. For the compound `CCOC(=O)N1CCN(c2ncnc3c2cnn3-c2cc(Cl)ccc2C)CC1`, the RP-LC retention time is 863 s. Then `COc1ccccc1NC(=O)C1CCN(c2cnc(N3CCCCCC3)nc2)CC1`, with 826 s; and `Cc1ccc(CNC(=O)Cn2c(=O)c(=O)n(C)c3ncccc32)o1`, with 656 s; and `O=C(NCc1cccnc1)C(=O)NCc1ccc2c(c1)OCO2`, with 588 s.

Compound `CCCCn1nc2ccc(S(=O)(=O)N3CCSCC3)cn2c1=O` had an RP-LC retention time of 847 s. `O=C(Nc1c(C(=O)N2CCN(c3ccccn3)CC2)oc2ccccc12)c1ccc([N+](=O)[O-])cc1` registered an RP-LC retention time of 757 s. The same measure for `O=[N+]([O-])c1ccc2[nH]c3nc4ccccc4nc3c2c1`: 876 s; for `O=C(Cn1nc2c(cc1=O)CCCCC2)Nc1nc(-c2cccnc2)cs1`: 646 s; for `O=C(NCc1ccco1)c1cc(C2CC2)on1`: 717 s.

`CCOC(=O)c1[nH]c(C)c(CCC(=O)N2CCC(C(=O)NCCCN3CCCC(C)C3)CC2)c1C` (centres undefined) showed an RP-LC retention time of 604 s. In turn, `Cc1cc(C)n(-c2ccnc(N3CCC(C(=O)N4CCN(c5ccccc5)CC4)CC3)n2)n1` registered an RP-LC retention time of 907 s. The compound `O=C(NCC1CCOCC1)c1n[nH]c2ccccc12` showed an RP-LC retention time of 654 s.

In turn, `Cc1ccc(S(=O)(=O)N2CC(=O)N(c3cccc(F)c3)C(C)(C(=O)NCCC(C)C)C2)cc1` (centres undefined) displayed an RP-LC retention time of 1020 s. On to `Cc1ccc(CNC(=O)C2(C)Cn3nc(C)cc3C(=O)N2c2ccc3c(c2)OCCO3)cc1` (centres undefined), for which the RP-LC retention time was found to be 809 s. Then `CN1C(=O)C(c2c(-c3ccc(Br)cc3)[nH]c3[nH]c(=O)[nH]c(=O)c23)c2ccccc21` (centres undefined), with 721 s; and `Cc1c(C(=O)C(=O)Nc2ccccc2C(N)=O)c2ccccc2n1C`, with 796 s. Regarding `CN(C)C(=O)c1n[nH]c2c1CN(C(=O)c1ccc(F)cc1F)CC2`, the RP-LC retention time stood at 629 s. Take `CNC(=O)[C@@H]1CN(C(=O)Cn2c(=O)oc3ccccc32)C[C@H]1COC`: the RP-LC retention time was 594 s. Compound `COc1ccc2[nH]cc(CCN3CC(C(=O)Nc4nnc(C(F)(F)F)s4)CC3=O)c2c1` (centres undefined) displayed an RP-LC retention time of 780 s. The same measure for `COc1ncc(C(=O)Nc2cc(C)cc(C)c2)c(C)n1`: 817 s; for `CCN(c1ccccc1C)S(=O)(=O)c1cc(-c2[nH]ncc2C(=O)N(C)C)oc1C`: 782 s; for `COc1cccc(C#N)c1OCC(N)=O`: 592 s. With `CSc1cccc(NC(=O)Cn2c(=O)cc(-c3nc(C4CC4)no3)c3ccccc32)c1`, the RP-LC retention time was 686 s. As to `Cc1ccc(-n2ccn3cc(-c4ccc(F)cc4)nc3c2=O)cc1Cl`, the RP-LC retention time was found to be 924 s.

Compound `Cc1nn2c(CNS(=O)(=O)c3ccccc3Cl)c(-c3ccccc3)nc2s1` came in with an RP-LC retention time of 853 s. As to `CCN1CCN(C(=O)C2CCCN(c3nnc4ccc(C(F)(F)F)cn34)C2)CC1` (centres undefined), the RP-LC retention time worked out at 567 s.

As to `O=C(NCc1ccccc1)C1CCN(C(=O)c2ncn3c2COC(c2ccc(Cl)cc2)C3)CC1` (centres undefined), the RP-LC retention time was 760 s.

Consider `CC(C)CC(=O)N1CC(c2nc(-c3cccnc3)no2)C2(CCOCC2)C1` (centres undefined), for which the RP-LC retention time was 706 s. The same measure for `CN(CCc1noc(COc2ccccc2)n1)C(=O)Cc1ccccc1`: 863 s; for `COc1ccccc1NC(=O)C1CCCN1S(=O)(=O)c1cc2c(cc1C)NC(=O)CO2` (centres undefined): 808 s. `COc1ccc(-c2noc(CSc3nccn3-c3ccccc3)n2)cc1` returned an RP-LC retention time of 869 s. Compound `CCN1CCN(C(=O)Cc2c(C)nc3nc(-c4ccc(C(C)(C)C)cc4)nn3c2C)CC1` showed an RP-LC retention time of 673 s. On to `CC(C)C(=O)Nc1ccc(C2(C(=O)O)CCC2)cc1`, for which the RP-LC retention time was 720 s. Then `COc1cccc(/C=C/c2nc(C#N)c(NCCN(C)C)o2)c1`, with 654 s; and `CC1CCN(C(=O)Cn2nc(-c3nc(-c4cccc(Cl)c4)no3)ccc2=O)CC1`, with 1040 s. The same measure for `COc1cc(OC)c(NC(=O)N2CCCC(C)(C(=O)NCc3ccccc3)C2)cc1Cl` (centres undefined): 897 s; for `O=C(Nc1ccc(OCC(=O)N2CCN(c3ccccn3)CC2)nc1)C1CC1`: 580 s. Compound `Cc1nc2cc(N3CC(C(=O)NCc4ccc(Br)cc4)CC3=O)ccc2o1` (centres undefined) yielded an RP-LC retention time of 761 s. With `COC(=O)c1cc(OCC(=O)Nc2cccc(Cl)c2)c2ccccc2n1`, the RP-LC retention time came out at 821 s.

Turning to `COc1ccc(CCN2C(=O)C(NC(=O)C3CC3)(C(F)(F)F)C3=C2CC(C)(C)CC3=O)cc1OC` (centres undefined), the RP-LC retention time is 847 s. For `CCS(=O)(=O)N1CC(=O)N(c2cc(Cl)ccc2C)C(C)(C(=O)NCc2ccccc2)C1` (centres undefined), the RP-LC retention time came out at 919 s. Turning to `Cc1cccc(NC(=O)C2CCN(S(=O)(=O)c3cc(C(=O)N4CCCC4)cs3)CC2)c1`, the RP-LC retention time is 819 s. Then `Cc1ccc(S(=O)(=O)N2c3ccccc3NC3=C(C(=O)CCC3)C2c2ccco2)cc1C` (centres undefined), with 860 s; and `Cc1ccc(-c2nnc(-c3cccc(S(=O)(=O)NCC(=O)O)c3)o2)cc1`, with 764 s; and `CCn1c(=O)c(N2CCCC(C(=O)NCCc3c[nH]c4ccc(C)cc34)C2)nc2ccccc21` (centres undefined), with 1030 s. On to `CCC(C)NC(=O)C1CCN(Cc2cn(C)c3ccc(Cl)cc23)CC1` (centres undefined), for which the RP-LC retention time came out at 673 s. With `CC1CCN(CC2CCN(S(=O)(=O)c3ccc(F)c(Cl)c3)CC2)CC1`, the RP-LC retention time is 688 s. `Cc1nn(CC(=O)NCCN2CCCCCC2)c(=O)c2nc(-c3ccccc3)sc12` registered an RP-LC retention time of 657 s. Then `CCOc1ccc(NS(=O)(=O)c2cc(C(=O)N3CCN(c4ccc(F)cc4)CC3)n[nH]2)cc1`, with 876 s. The same measure for `CCCCn1cc(S(=O)(=O)Nc2cccc(F)c2)c2cccnc21`: 936 s; for `CN(C)c1ccc(CNC(=O)c2cc(=O)n3c(nc4ccccc43)s2)cc1`: 805 s. With `Cn1c(=O)c(=O)n(C)c2cc(N3CCOCC3)c(NC(=O)C3CC3)cc21`, the RP-LC retention time is 623 s.

Compound `Cn1nc2n(c1=O)CCN(S(=O)(=O)Cc1ccccc1)CC2` came in with an RP-LC retention time of 659 s.
